Experimental data published in patent publication US20100298141A1, “SUBSTITUTED PYRIDINE N-OXIDE HERBICIDES” (E. I. DU PONT DE NEMOURS AND COMPANY, priority 2007, published 2010).

Legend:
giant foxtail = test: Test C pre-/postemergence test; assay type: in vivo, Setaria faberii
Method in brief: (§1)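 Compounds in a non-phytotoxic solvent with surfactant applied preemergence to seeded pots and, at the same time, postemergence to plants 2–18 cm tall (1- to 4-leaf stage). Paddy tests: pots flooded to 3 cm, compound applied into the water, depth held throughout.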

umbrella sedge = test: Test C flooded paddy test; assay type: in vivo, Cyperus difformis; details: Flood, 62 g ai/ha; scale 0 to 100 (0 no effect, 100 complete control)
Method in brief: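 Test compounds are applied straight into paddy water held 3 cm above the soil surface, with that flood maintained for the whole test. After 13 to 15 days in the greenhouse, each species is scored visually relative to controls.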

Goosegrass = test: Test C pre-/postemergence test; assay type: in vivo, Eleusin indica
Method in brief: as §1

[1] = tested on: common (oilseed) sunflower; test: Test C pre-/postemergence test; assay type: in vivo, Helianthus annuus
Method in brief: as §1

crabgrass [2] = test: Test A pre-/postemergence greenhouse test; assay type: in vivo, Digitaria sanguinalis; details: for Plant response rating, Crabgrass, Large: 0 to 100 scale where 0 is no effect and 100 is complete control; for Crabgrass, Large plant response rating: 0 to 100 scale
Method in brief: (§2)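 Visual injury ratings against untreated controls, taken roughly ten days after treatment in greenhouse. Plants were sprayed postemergence at one- to two-leaf stage (2–10 cm tall); at the same time, seeded loam/sand soil received a directed preemergence spray. Formulation: non-phytotoxic solvent mixture with surfactant.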

corn [3] = test: Test A pre-/postemergence greenhouse test; assay type: in vivo, Zea mays; details: for Plant response rating, Corn: 0 to 100 scale where 0 is no effect and 100 is complete control; for Corn plant response rating: 0 to 100 scale
Method in brief: as §2

Italian ryegrass = test: Test C pre-/postemergence test; assay type: in vivo, Lolium multiflorum
Method in brief: as §1

crabgrass [4] = test: Test C pre-/postemergence test; assay type: in vivo, Digitaria sanguinalis
Method in brief: as §1

corn [5] = test: Test C pre-/postemergence test; assay type: in vivo, Zea mays
Method in brief: as §1

velvetleaf = test: Test C pre-/postemergence test; assay type: in vivo, Abutilon theophrasti
Method in brief: as §1

morningglory = test: Test C pre-/postemergence test; assay type: in vivo, Ipomoea coccinea
Method in brief: as §1

barnyardgrass = test: Test A pre-/postemergence greenhouse test; assay type: in vivo, Echinochloa crus-galli; details: for Plant response rating, Barnyardgrass: 0 to 100 scale where 0 is no effect and 100 is complete control; for Barnyardgrass plant response rating: 0 to 100 scale
Method in brief: as §2

Surinam grass = test: Test C pre-/postemergence test; assay type: in vivo, Brachiaria decumbens
Method in brief: as §1

pigweed = test: Test C pre-/postemergence test; assay type: in vivo, Amaranthus retroflexus
Method in brief: as §1

wheat = test: Test A pre-/postemergence greenhouse test; assay type: in vivo, Triticum aestivum; details: for Plant response rating, Wheat: 0 to 100 scale where 0 is no effect and 100 is complete control; for Wheat plant response rating: 0 to 100 scale
Method in brief: as §2

johnsongrass = test: Test C pre-/postemergence test; assay type: in vivo, Sorghum halepense
Method in brief: as §1

[6] = 62 g ai/ha, Preemergence, scale 0 to 100
[7] = 125 g ai/ha, preemergence, scale 0 (no effect) to 100 (complete control)
[8] = Postemergence, 62 g ai/ha, scale 0 to 100, 0 no effect, 100 complete control
[9] = Postemergence, 125 g ai/ha, scale 0 to 100, 0 no effect, 100 complete control
[10] = Postemergence, 250 g ai/ha, scale 0 to 100, 0 no effect, 100 complete control
[11] = Preemergence, 31 g ai/ha, scale 0 to 100 (0 no effect, 100 complete control)
[12] = preemergence, 250 g ai/ha, scale 0 (no effect) to 100 (complete control)
[13] = Postemergence, 500 g ai/ha, 0 is no effect, 100 is complete control
[14] = Preemergence, 125 g ai/ha, 0 no effect, 100 complete control

Cn1nc(C(F)(F)F)c(C[S+]([O-])c2ccc(F)c[n+]2[O-])c1OCC(F)(F)F (stereo not shown) [Compound 67]
55: Pigweed plant response rating (pigweed; [6])
65: Plant response rating, Johnsongrass (johnsongrass; [11])
90: Plant response rating, Goosegrass (Goosegrass; [10]) | Plant response rating, Crabgrass, Large (crabgrass [2]; Postemergence, 125 g ai/ha) | Crabgrass, Large plant response rating (crabgrass [2]; [13]) | Corn plant response rating (corn [3]; [13]) | Plant response rating, Ryegrass, Italian (Italian ryegrass; [9]) | Plant response rating, Ryegrass, Italian (Italian ryegrass; [10]) | Plant response rating, Barnyardgrass (barnyardgrass; Postemergence, 125 g ai/ha) | Barnyardgrass plant response rating (barnyardgrass; [13]) | Barnyardgrass plant response rating (barnyardgrass; [14])
0: Plant response rating (0 to 100), Foxtail, Giant (giant foxtail; Postemergence, 31 g ai/ha) | Plant response rating, Foxtail, Giant (giant foxtail; [8]) | Plant response rating (0 to 100), Goosegrass (Goosegrass; Postemergence, 31 g ai/ha) | Plant response rating, Goosegrass (Goosegrass; [8]) | Corn plant response rating (corn [3]; [14]) | Plant response rating (0 to 100), Ryegrass, Italian (Italian ryegrass; Postemergence, 31 g ai/ha) | Plant response rating (0 to 100), Crabgrass, Large (crabgrass [4]; Postemergence, 31 g ai/ha) | Plant response rating, Crabgrass, Large (crabgrass [4]; [8]) | Plant response rating (0 to 100), Corn (corn [5]; Postemergence, 31 g ai/ha) | Plant response rating, Corn (corn [5]; [8]) | Plant response rating, Corn (corn [5]; [10]) | Plant response rating (0 to 100), Velvetleaf (velvetleaf; Postemergence, 31 g ai/ha) | Plant response rating (0 to 100), Velvetleaf (velvetleaf; Postemergence, 62 g ai/ha) | Plant response rating (0 to 100), Morningglory (morningglory; Postemergence, 31 g ai/ha) | Plant response rating, Morningglory (morningglory; [8]) | Plant response rating, Morningglory (morningglory; [9]) | Plant response rating, Morningglory (morningglory; [10]) | Plant response rating (0 to 100), Surinam Grass (Surinam grass; Postemergence, 31 g ai/ha) | Plant response rating (0 to 100), Surinam Grass (Surinam grass; Postemergence, 62 g ai/ha) | Plant response rating (0 to 100), Pigweed (pigweed; Postemergence, 31 g ai/ha) | Plant response rating (0 to 100), Pigweed (pigweed; Postemergence, 62 g ai/ha) | Plant response rating, Pigweed (pigweed; [9]) | Plant response rating (0 to 100), Johnsongrass (johnsongrass; Postemergence, 31 g ai/ha) | Plant response rating, Johnsongrass (johnsongrass; [8]) | Plant response rating, Johnsongrass (johnsongrass; [9]) | Plant response rating, Johnsongrass (johnsongrass; [10])
10: Plant response rating, Crabgrass, Large (crabgrass [4]; [9])
50: Plant response rating, Goosegrass (Goosegrass; [9]) | Plant response rating, Pigweed (pigweed; [11])
80: Plant response rating, Foxtail, Giant (giant foxtail; [11]) | Plant response rating, Corn (corn [3]; Preemergence, 500 g ai/ha) | Johnsongrass plant response rating (johnsongrass; [7])
35: Plant response rating, Velvetleaf (velvetleaf; [10])
95: Corn plant response rating (corn [5]; [6]) | Corn plant response rating (corn [5]; [7]) | Morningglory plant response rating (morningglory; [6])
30: Plant response rating, Velvetleaf (velvetleaf; [9]) | Plant response rating, Surinam Grass (Surinam grass; [9])
75: Plant response rating, Velvetleaf (velvetleaf; [11])
100: Foxtail, Giant plant response rating (giant foxtail; [6]) | Foxtail, Giant plant response rating (giant foxtail; [7]) | Foxtail, Giant plant response rating (giant foxtail; [12]) | Plant response rating, Sedge, Umbrella (umbrella sedge) | Goosegrass plant response rating (Goosegrass; [6]) | Goosegrass plant response rating (Goosegrass; [7]) | Plant response rating, Goosegrass (Goosegrass; [11]) | Goosegrass plant response rating (Goosegrass; [12]) | Sunflower plant response rating [1, 7] | Sunflower plant response rating [1, 12] | Crabgrass, Large plant response rating (crabgrass [2]; [14]) | Plant response rating, Crabgrass, Large (crabgrass [2]; Preemergence, 500 g ai/ha) | Ryegrass, Italian plant response rating (Italian ryegrass; [6]) | Ryegrass, Italian plant response rating (Italian ryegrass; [7]) | Plant response rating, Ryegrass, Italian (Italian ryegrass; [11]) | Ryegrass, Italian plant response rating (Italian ryegrass; [12]) | Crabgrass, Large plant response rating (crabgrass [4]; [6]) | Crabgrass, Large plant response rating (crabgrass [4]; [7]) | Crabgrass, Large plant response rating (crabgrass [4]; [12]) | Corn plant response rating (corn [5]; [12]) | Velvetleaf plant response rating (velvetleaf; [7]) | Velvetleaf plant response rating (velvetleaf; [12]) | Morningglory plant response rating (morningglory; [7]) | Morningglory plant response rating (morningglory; [12]) | Plant response rating, Barnyardgrass (barnyardgrass; Preemergence, 500 g ai/ha) | Surinam Grass plant response rating (Surinam grass; [6]) | Surinam Grass plant response rating (Surinam grass; [7]) | Surinam Grass plant response rating (Surinam grass; [12]) | Pigweed plant response rating (pigweed; [7]) | Pigweed plant response rating (pigweed; [12]) | Plant response rating, Wheat (wheat; Preemergence, 500 g ai/ha)
60: Plant response rating, Corn (corn [3]; Postemergence, 125 g ai/ha) | Plant response rating, Crabgrass, Large (crabgrass [4]; [10]) | Plant response rating, Crabgrass, Large (crabgrass [4]; [11]) | Plant response rating, Morningglory (morningglory; [11]) | Plant response rating, Pigweed (pigweed; [10]) | Plant response rating, Wheat (wheat; Postemergence, 125 g ai/ha) | Wheat plant response rating (wheat; [14])
40: Plant response rating, Foxtail, Giant (giant foxtail; [9]) | Plant response rating (0 to 100), Ryegrass, Italian (Italian ryegrass; Postemergence, 62 g ai/ha)
45: Plant response rating, Sunflower [1, 11] | Plant response rating, Corn (corn [5]; [11]) | Plant response rating, Surinam Grass (Surinam grass; [10])
70: Plant response rating, Foxtail, Giant (giant foxtail; [10]) | Wheat plant response rating (wheat; [13]) | Johnsongrass plant response rating (johnsongrass; [6])
85: Sunflower plant response rating [1, 6] | Velvetleaf plant response rating (velvetleaf; [6]) | Plant response rating, Surinam Grass (Surinam grass; [11]) | Johnsongrass plant response rating (johnsongrass; [12])
